Measurements reported in patent publication US12459914B2, “Compounds and compositions for the treatment of tumors” (FONDAZIONE ISTITUTO ITALIANO DI TECNOLOGIA, priority 2019, dated 2025).

Legend:
BRC4/RAD51 interaction = target: T1, BRC4/RAD51 interaction (Homo sapiens, UniProt Q06609); assay: Competitive ELISA assay, disruption of BRC4/RAD51 interaction; assay type: binding; conditions: human Rad51, biotinylated BRC4 peptide
T1 construct: purchased Creative Biomart (Rad51); Life Technologies (BRC4 peptide)
T1 sequence (Q06609 1-339): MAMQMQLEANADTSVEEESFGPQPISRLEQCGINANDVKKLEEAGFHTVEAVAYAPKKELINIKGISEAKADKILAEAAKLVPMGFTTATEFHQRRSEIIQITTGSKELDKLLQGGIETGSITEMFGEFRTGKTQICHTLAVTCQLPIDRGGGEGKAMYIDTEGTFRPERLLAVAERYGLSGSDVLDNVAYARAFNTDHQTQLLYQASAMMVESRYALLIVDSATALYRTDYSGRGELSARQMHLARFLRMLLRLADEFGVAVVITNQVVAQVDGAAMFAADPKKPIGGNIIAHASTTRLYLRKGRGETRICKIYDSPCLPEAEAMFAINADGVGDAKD
Procedure, shortened: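 Competitive ELISA: plates coated with biotinylated BRC4 peptide, blocked with 1% BSA/PBST, then hybridized overnight with human Rad51 protein. Compounds tested in triplicate dose-response, […], 1% DMSO. Bound Rad51 detected colorimetrically with anti-Rad51 antibody, HRP secondary and TMB quenched with HCl.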

BxPC-3 cells [1] = assay: Association with olaparib (given alone or in combination), cell viability / cytotoxicity; assay type: cell-based; conditions: olaparib 10 μM, 72 h
Method: BxPC-3 cells were grown in RPMI 1640 containing 10% FBS, 100 U/ml penicillin/streptomycin, 2 mM glutamine. All media and supplements were from Sigma-Aldrich. Cultures were routinely tested for Mycoplasma contamination. Treatments (Olaparib and BRCA2-Rad51 disruptors) were administered in culture medium supplemented with 0.6% DMSO. The same amount of DMSO was added to the control, untreated cultures.
Cell viability was assessed by CellTiter Glo, Luminescent Cell Viability Assay. Briefly, BxPC-3 cells (1×10^4/well) were plated in white 96-well plates with clear bottom and treated for 72 h with olaparib (10 μM) or with the BRCA2-Rad51 disruptors, given alone or in combination. After treatments, the plate was allowed to equilibrate at room temperature for 30 min and the CellTiter-Glo reactive was directly added to each well. The plate was kept on a shaker for 2 min to induce cell lysis and its luminescence was measured by using a Fluoroskan Ascent FL reader (Labsystems) using manufacturer's instructions.
Cell death was assessed by applying the CellTox™ Green Cytotoxicity assay (Promega). Briefly, BxPC-3 (1×10^4/well) were plated in black 96-well plates with clear bottom and treated for 72 h with olaparib (10 μM) or with the BRCA2-Rad51 disruptors, given alone or in combination. At the end of treatment, the CellTox™ dye was added to cell cultures and the green fluorescence signal, which is produced by the binding interaction with dead cell DNA, was measured following the manufacturer's instructions. The fluorescence signal was detected using the EnSpire 2300 Multilabel Reader (Perkin Elmer); for each sample, the obtained signal was normalized on the number of viable cells, detected by the CellTiterGlo reagent.

BxPC-3 cells [2] = assay: Cell viability assay (CellTiter Glo); assay type: cell-based; conditions: Homo sapiens, 72 h
[3] = test system: Homologous recombination (HR) in BxPC3 cells; assay: Homologous recombination assay (HR); assay type: cell-based; conditions: Homo sapiens, BXPC-3, at 40 μM
Method: Homologous recombination (HR) was assessed by using a commercially available assay (Norgen). This assay is based on cell co-transfection with two plasmids that, upon cells entering, recombinate. The efficiency of HR can be assessed by real time PCR, using primer mixtures included in the assay kit. Different primer mixtures allow differentiation between the original plasmid backbones and their recombination product.
BxPC3 cells (2×10^3 per well) were seeded in a 24-well plate and allowed to adhere overnight. Co-transfection with the two plasmids was performed in Lipofectamine 2000 (Invitrogen) for 5 h, according to the manufacturer's instructions. During transfection cells were exposed at different doses of BRCA2-Rad51 disruptors, dissolved in RPMI without serum in the presence of 0.6% DMSO.
After washing with PBS, cells were harvested, and DNA was isolated using QIAamp® DNA Mini Kit (Qiagen). Sample concentration was measured using an ONDA Nano Genius photometer.
The thermal cycler (CFX96 ™ Real Time System, BioRad) was programmed as follows: initial denaturation 95° C. for 3 min then 95° C. for 15 sec., 61° C. for 30 sec., 72° C. for 1 min and repeated for 40 cycles. Melt curve analysis was done. Samples were run in triplicate, in 10 μl reaction volume containing 25 ng of template.
In each DNA sample from control and treated cultures, the ΔCt between the recombination product and the backbone plasmids was calculated. HR efficiency was evaluated from the 2^−ΔΔ^Ct value obtained by comparing treated vs control samples.

Cn1ccc2cc(C3CC(c4c(-c5ccccc5)c5cc(Cl)ccc5[nH]c4=O)=NN3C(=O)CCC(=O)O)ccc21 (stereo not shown) [d.22, 4-[5-(6-chloro-2-oxo-4-phenyl-1H-quinolin-3-yl)-3-(1-methylindol-5-yl)-3,4-dihydropyrazol-2-yl]-4-oxo-butanoic acid]
EC50 (BRC4/RAD51 interaction): 2 µM | Olaparib Assoc. (BxPC-3 cells [1]): synergy | EC50 (BxPC-3 cells [2]): > 20 µM

CCn1cc2cc(-c3ccc(C4CC(c5c(-c6ccccc6)c6cc(Cl)ccc6[nH]c5=O)=NN4C(=O)CCC(=O)O)cc3)ccc2n1 (stereo not shown) [d.46, 4-[5-(6-chloro-2-oxo-4-phenyl-1H-quinolin-3-yl)-3-[4-(2-ethylindazol-5-yl)phenyl]-3,4-dihydropyrazol-2-yl]-4-oxo-butanoic acid]
EC50 (BRC4/RAD51 interaction): 17 µM | Olaparib Assoc. (BxPC-3 cells [1]): synergy | EC50 (BxPC-3 cells [2]): 44 µM | inhibition at 40 µM [3]: 91.7%
